Tests used:
[1] = system: TMN neurons (eIPSCs and sIPSCs); assay: Spontaneous and evoked IPSCs in TMN neurons in brain slices; assay type: cell-based, rat; conditions: gabazine 10 µM, n = 5
Description: (§1) Recordings from histaminergic neurons in male Wistar rat (22–26 day old) or 30–60 day old mouse (SV129, histidine decarboxylase deficient HDC−/− or their wild type littermates) hypothalamic slices were performed as previously described. Slices were obtained between 9 and 11 a.m. In the beginning of whole-cell voltage clamp recordings TMN neurons were identified with the help of DIC microscopy and electrophysiological criteria as previously described. Inhibitory postsynaptic currents (IPSCs) were evoked by local stimulation through a bipolar stainless-steel stimulating electrode (50 µm; WPI, UK). The stimulation of axonal endings coming to TMN from ventrolateral preoptic area (VLPO) was done as described in [22]. […] Individual neurons were separated by vibrodissociation after brief preincubation with papain from the hypothalamic slices of mice or rats and identified as TMN neurons according to their size and shape. Identification was confirmed post hoc with the single-cell RT-PCR (all data presented in the manuscript were obtained from histidine decarboxylase-expressing neurons), [40]. TMN neurons from HDC−/− mice were identified by the expression of peripherin [16]. Whole-cell voltage-clamp recordings from isolated neurons were done with an EPC-9 amplifier and TIDA for Windows (HEKA, Lambrecht, Germany) at room temperature. Membrane potentials were not corrected for liquid junction potential (5.6 mV, calculated with LJPCalc, Barry, 1994). The intracellular solution was composed of (in mM) 140 KCl, 2 MgCl2, 0.5 CaCl2, 5 EGTA, 2 ATP and 10 HEPES (pH 7.2 adjusted with NaOH). A fast perfusion technique was used for application of ligands and modulators of fast ionotropic receptors, [41]. […] EC50 is the ligand concentration producing a half-maximal response, [ligand] is ligand concentration, and n is the Hill slope. Hill coefficients were obtained from the slope of the log/log plot of the dose-response curves. […] Steady-state amplitudes of the responses were used for the construction of dose-response plots if not mentioned otherwise.

[2] = system: isolated TMN neurons (sIPSCs); assay: sIPSCs in acutely isolated and cultured neurons; assay type: cell-based; conditions: gabazine
Description: as §1

[3] = system: cultured hypothalamic neurons; assay: Microelectrode array (MEA) recordings of cultured hypothalamic neurons; assay type: cell-based, mouse; conditions: with GABAA receptor antagonist gabazine
Description: Primary dissociated cultures of posterior hypothalamus were prepared from newborn mice according to the protocols previously described, [43]. […] Recordings were done between 11th-21st day after plating. […] Signals from all 60 electrodes were simultaneously sampled at 25 kHz, visualized and stored using the standard software […] provided by Multi Channel Systems. Spike detection and analysis was performed offline with the software […] (RESULT Medizinische […], Germany), which uses the agreement coefficient “Cohen's kappa” (κ) to assess the degree of spike and burst synchrony for selected pairs of electrodes. […] In order to describe the distribution of kappa across the whole MEA, we calculated the mean of all kappa-values obtained for pairs of “active” electrodes. At the beginning of experiments the basal medium was replaced by a magnesium-free HEPES-based recording solution (see above) and measurements were started after a 20 min adaptation phase. Every measurement comprised three recordings - control, test substance and washout (second control) - each two minutes long and separated by an intermediate period of 30 seconds.

[4] = system: native GABAA receptors; assay: GABA-evoked whole-cell currents in acutely isolated TMN neurons (wild type); assay type: cell-based, mouse
Description: as §1

[5] = system: GABAA receptors of HDC−/− TMN neurons; assay: GABA-evoked whole-cell currents in TMN neurons from HDC−/− mice; assay type: cell-based, mouse
Description: as §1

[6] = system: GABAA receptor; assay: Voltage dependence of GABAAR block (Woodhull analysis); assay type: cell-based; conditions: Woodhull fit, Eq. 3; for Kd: read-out: KD(0), dissociation constant at 0 mV
Description: Voltage dependence of GABAAR block by UDCA was analysed according to the method of Woodhull, which provides a means of calculating the fraction of the transmembrane field sensed by charged blocking ligand at its acceptor site.

[7] = molecular target: T1, α1β2γ2L GABAA receptors (WT) (UniProt P22723+P62813+P63138); assay: Patch-clamp of recombinant wild-type α1β2γ2L GABAAR in HEK293 cells; assay type: cell-based, rat α1, rat β2, mouse γ2L; conditions: pregnenolone sulphate 10 µM
T1 construct: expressed in transfected cells; host or cells: HEK293
T1 sequence (P62813 28-455): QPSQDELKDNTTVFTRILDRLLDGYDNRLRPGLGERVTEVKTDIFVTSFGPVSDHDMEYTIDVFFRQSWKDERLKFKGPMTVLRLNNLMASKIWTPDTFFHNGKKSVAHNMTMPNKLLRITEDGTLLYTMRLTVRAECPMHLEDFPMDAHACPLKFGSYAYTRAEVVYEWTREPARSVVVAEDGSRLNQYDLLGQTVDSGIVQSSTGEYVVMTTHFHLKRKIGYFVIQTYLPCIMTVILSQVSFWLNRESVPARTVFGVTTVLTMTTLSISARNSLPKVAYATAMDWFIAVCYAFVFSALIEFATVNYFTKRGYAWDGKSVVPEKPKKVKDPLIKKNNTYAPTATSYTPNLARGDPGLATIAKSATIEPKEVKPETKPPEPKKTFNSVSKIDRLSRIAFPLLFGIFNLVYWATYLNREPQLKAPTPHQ
T1 sequence (P63138 25-474 limits assumed): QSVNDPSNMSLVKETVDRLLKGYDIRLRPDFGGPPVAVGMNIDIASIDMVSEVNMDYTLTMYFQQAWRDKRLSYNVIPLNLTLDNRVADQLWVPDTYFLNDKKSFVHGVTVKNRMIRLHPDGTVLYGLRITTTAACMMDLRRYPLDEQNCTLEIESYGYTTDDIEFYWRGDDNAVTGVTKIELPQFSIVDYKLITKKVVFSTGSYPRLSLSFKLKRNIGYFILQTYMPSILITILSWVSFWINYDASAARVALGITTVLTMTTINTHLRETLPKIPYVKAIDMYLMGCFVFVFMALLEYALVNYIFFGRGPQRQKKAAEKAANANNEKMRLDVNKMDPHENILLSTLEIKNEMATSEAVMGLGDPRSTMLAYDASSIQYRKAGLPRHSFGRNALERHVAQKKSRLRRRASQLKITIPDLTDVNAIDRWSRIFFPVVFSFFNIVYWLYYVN
T1 sequence (P22723 39-474): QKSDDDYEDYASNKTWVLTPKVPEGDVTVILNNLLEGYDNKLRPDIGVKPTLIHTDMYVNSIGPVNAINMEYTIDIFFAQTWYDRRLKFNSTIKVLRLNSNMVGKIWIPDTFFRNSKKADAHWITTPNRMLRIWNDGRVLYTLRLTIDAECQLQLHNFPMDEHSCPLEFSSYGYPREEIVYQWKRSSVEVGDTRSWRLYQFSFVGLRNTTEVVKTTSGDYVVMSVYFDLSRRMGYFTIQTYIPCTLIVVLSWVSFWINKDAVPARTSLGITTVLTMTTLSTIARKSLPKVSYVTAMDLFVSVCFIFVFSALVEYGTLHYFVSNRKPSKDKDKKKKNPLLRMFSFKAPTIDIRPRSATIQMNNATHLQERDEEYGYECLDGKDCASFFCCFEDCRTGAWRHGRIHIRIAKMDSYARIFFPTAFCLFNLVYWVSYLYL
Description: (§2) HEK 293 cells were obtained from DSM (Deutsche Sammlung von Mikroorganismen und Zellkulturen GmbH, DSM, Braunschweig). They were grown and maintained according to published standard protocols. Briefly, cells were grown in minimal essential medium supplemented with 10% fetal bovine serum, 100units/ml penicillin and streptomycin and 2 mM L-glutamine and splitted once per week. Semiconfluent cells were transfected on the third day after splitting with the help of Lipofectamine 2000 (Invitrogen), recordings were done 48–72 hrs after transfection.
(§3) The GABAAR subunit cDNAs, generously donated by G.Gisselmann (rat α1, mouse γ2L, rat β1, β2 and human β3 [26]) and J.H. Steinbach (rat α1V256S [28] and rat α1Q241L [44]), were subcloned into pcDNA3 (Invitrogen, Karlsruhe, Germany) and applied in a ratio 1∶1∶1 for the α1βxγ2L receptor and 1∶1 for α1β3 or β3γ2L receptors. […] For each receptor type patch clamp recordings were obtained from at least three separate transfections. Whole-cell patch clamp recordings were done in a similar extracellular solution as for the native cells (see above) except that the concentration of MgCl2 was reduced to 1.2 mM. Intracellular electrodes contained 140 mM CsCl (instead of KCl), pH adjusted with CsOH. The voltage was held at −40 mV.

[8] = molecular target: T2, α1V256Sβ2γ2L GABAA receptors (UniProt P22723+P62813+P63138, V283S); assay: Patch-clamp of mutant α1V256Sβ2γ2L GABAAR in HEK293 cells; assay type: cell-based, rat α1V256S, rat β2, mouse γ2L; conditions: pregnenolone sulphate 10 µM
T2 construct: expressed in transfected cells; host or cells: HEK293
T2 sequence (P62813 28-455 V283S): as the sequence (P62813 28-455) above, with V256S counted along it
T2 sequence (P63138 25-474 limits assumed): as the sequence (P63138 25-474 limits assumed) above
T2 sequence (P22723 39-474): as the sequence (P22723 39-474) above
Description: as §2, §3

[9] = system: NMDA receptors; assay: NMDA-evoked currents in isolated neurons; assay type: cell-based; conditions: D-AP5 100 µM
Description: Recordings from histaminergic neurons in male Wistar rat (22–26 day old) or 30–60 day old mouse (SV129, histidine decarboxylase deficient HDC−/− or their wild type littermates) hypothalamic slices were performed as previously described. Slices were obtained between 9 and 11 a.m. In the beginning of whole-cell voltage clamp recordings TMN neurons were identified with the help of DIC microscopy and electrophysiological criteria as previously described. Inhibitory postsynaptic currents (IPSCs) were evoked by local stimulation through a bipolar stainless-steel stimulating electrode (50 µm; WPI, UK). The stimulation of axonal endings coming to TMN from ventrolateral preoptic area (VLPO) was done as described in [22]. Visual identification of histaminergic neurons recorded in cell-attached configuration (see [16]) was confirmed by the significant reduction of firing rate by the histamine 3 (H3) receptor agonist R-α-methylhistamine (0.2 µM), which was performed at the end of each experiment. Individual neurons were separated by vibrodissociation after brief preincubation with papain from the hypothalamic slices of mice or rats and identified as TMN neurons according to their size and shape. Identification was confirmed post hoc with the single-cell RT-PCR (all data presented in the manuscript were obtained from histidine decarboxylase-expressing neurons), [40]. TMN neurons from HDC−/− mice were identified by the expression of peripherin [16]. Whole-cell voltage-clamp recordings from isolated neurons were done with an EPC-9 amplifier and TIDA for Windows (HEKA, Lambrecht, Germany) at room temperature. Membrane potentials were not corrected for liquid junction potential (5.6 mV, calculated with LJPCalc, Barry, 1994). The intracellular solution was composed of (in mM) 140 KCl, 2 MgCl2, 0.5 CaCl2, 5 EGTA, 2 ATP and 10 HEPES (pH 7.2 adjusted with NaOH). A fast perfusion technique was used for application of ligands and modulators of fast ionotropic receptors, [41]. […] EC50 is the ligand concentration producing a half-maximal response, [ligand] is ligand concentration, and n is the Hill slope. Hill coefficients were obtained from the slope of the log/log plot of the dose-response curves. […] Steady-state amplitudes of the responses were used for the construction of dose-response plots if not mentioned otherwise.
For the testing of UDCA action at NMDA receptors a maximal 0.2 mM concentration of agonist was used. Recordings were done in Mg^2+ -free solution in the presence of 10 µM of glycine. NMDA-currents were abolished by the NMDA receptor antagonist D-AP5 (100 µM).

## COc1ccc(-c2ccc(=N)n(CCCC(=O)O)n2)cc1 [Gabazine, gabazine]
[1]
  eIPSCs and sIPSCs: abolished
[2]
  GABAergic sIPSCs in isolated TMN neuron: abolished

## C[C@H](CCC(=O)NCCS(=O)(=O)O)[C@H]1CC[C@H]2[C@@H]3[C@@H](O)C[C@@H]4C[C@H](O)CC[C@]4(C)[C@H]3CC[C@]12C [TUDC, tauroursodeoxycholate]
[3]
  effect on synchronization in the presence of gabazine: blanks the effect

## CC1CC(C)(c2ccccc2)OC(C)O1 (centres unmarked) [vertacetal]
[4]; wild type neurons, n = 5, read-out: EC50 of GABAAR modulation by vertacetal
  EC50: 13.4 ± 2.6 µM
[5]; HDC−/− neurons, n = 5, read-out: EC50 of GABAAR modulation by vertacetal
  EC50: 9.2 ± 3 µM

## C[C@H](CCC(=O)O)[C@H]1CC[C@H]2[C@@H]3C(=O)C[C@@H]4CC(=O)CC[C@]4(C)[C@H]3CC(=O)[C@]12C [dehydrocholate]
[6]
  fraction of the transmembrane field sensed at the acceptor site (f): 0.33±0.03
  Kd: 1400 µM

## C[C@H](CCC(=O)O)[C@H]1CC[C@H]2[C@@H]3[C@H](O)C[C@@H]4C[C@H](O)CC[C@]4(C)[C@H]3C[C@H](O)[C@]12C [cholate]
[6]
  fraction of the transmembrane field sensed at the acceptor site (f): 0.3±0.02
  Kd: 710 µM

## Cc1ccc(-c2nc3ccc(C)cn3c2CC(=O)N(C)C)cc1 [zolpidem]
[5]
  modulation of GABAAR, HDC+/+ versus HDC−/− TMN neurons: No difference

## picrotoxin
[4]
  use dependence of block of GABA currents: use-dependent block
[4]; GABA 10 µM, 1 s
  reversibility of block of GABA currents: not fully reversible

## CC(=O)C1CCC2C3CC=C4CC(OS(=O)(=O)O)CCC4(C)C3CCC12C (centres unmarked) [Pregnenolone sulphate, pregnenolone sulphate]
[7]
  steady-state amplitude of maximal GABA-currents: 11±3 % of control
[8]
  steady-state amplitude of maximal GABA-currents: 82±6 % of control

## NC(CCCP(=O)(O)O)C(=O)O [D-AP5]
[9]
  NMDA-currents: abolished

## C[C@H](CCC(=O)O)[C@H]1CC[C@H]2[C@@H]3[C@H](O)C[C@@H]4C[C@H](O)CC[C@]4(C)[C@H]3CC[C@]12C [CDOC, chenodeoxycholate]
[6]
  fraction of the transmembrane field sensed at the acceptor site (f): 0.33±0.02
  Kd: 42 µM
